Measured values taken from patent US11542266B1, “Substituted piperidines as BTK inhibitors” (HAISCO PHARMACEUTICALS PTE. LTD., priority 2019, dated 2023).
Counter-ions that a name gives are not always drawn. Like-named read-outs stand apart in the source and are kept apart here. One block for each compound: values may come before it.

Legend:
[1] = Pharmacokinetic experiment in rats (i.g. vehicle 0.5% MC); assay type: in vivo; conditions: male SD rats; for AUC(0-t): i.g. 20 mg/kg, vehicle 0.5% MC
Description: Objective: In this experiment, a single dose of each test compound was administered to SD rats intravenously and intragastrically, the concentrations of the test compound in plasma of rats were measured, and the pharmacokinetic characteristics and bioavailability of the test compound in rats were evaluated.
Experimental animals: Male SD rats, 200-250 g, 6-8 weeks old, 6 rats/test compound. The experimental animals were purchased from CHENGDU DOSSY EXPERIMENTAL ANIMALS CO., LTD.
Experimental method: On the day of the experiment, 6 SD rats were randomly grouped according to their body weight. The animals were fasted with water available for 12 to 14 hours one day before the administration of a test compound, and were fed 4 hours after the administration.
Sampling: Before and after the administration, 0.1 ml of blood was taken from the orbit of the rats under isoflurane anesthesia, and placed in an EDTAK2 centrifuge tube. Centrifugation was carried out at 5000 rpm at 4° C. for 10 min and the plasma was collected.
Time points for plasma collection in G1 group: 0, 5 m, 15 m, 30 m, 1 h, 2 h, 4 h, 6 h, 8 h, and 24 h.
Time points for plasma collection in G2 group: 0, 15 m, 30 m, 1 h, 2 h, 4 h, 6 h, 8 h, and 24 h.
Before analysis and detection, all samples were stored at −80° C. The samples were analyzed quantitatively by LC-MS/MS.

Mino cells = experiment: Inhibition of cell proliferation, Mino cells (Cell Viability Assay, 72 h); assay type: cell-based, human
Description: (§1) SU-DHL-4, Mino, and SU-DHL-6 cells, in the culture medium of RPMI1640+10% FBS, were cultured in an incubator at 37° C. under 5% CO2. Cells were plated in a 96-well plate. Specifically, SU-DHL-4 cells were at 20000/well, Mino and SU-DHL-6 cells were at 5000/well, with 90 μL/well. 10 μL of the compounds at different concentrations were added to each well. There were 3 replicate wells for each concentration, and the last column, added with DMSO, was used as a vehicle control group. The cultures were continued for 72 hours at 37° C. under 5% CO2. After 72 hours, 100 μL of detection reagent (Cell Viability Assay, Promega, G7573) was added to each well, and the cultures were uniformly mixed for 2 minutes, and incubated at room temperature for 10 minutes. The fluorescence signal value was measured with a microplate reader (PHERAstar FSX). The IC50 value of the compound on cell proliferation inhibition was calculated using Origin 9.2 software, and the inhibition rate at the highest concentration of the compound (Max inhi. %) was calculated according to formula (1). Max inhi. %=(1-T72 administration/T72 vehicle)×100 Formula (1).

SU-DHL-6 cells = experiment: Inhibition of cell proliferation, SU-DHL-6 cells (Cell Viability Assay, 72 h); assay type: cell-based; conditions: Homo sapiens
Description: as §1

SU-DHL-4 cells = experiment: Inhibition of cell proliferation, SU-DHL-4 cells (Cell Viability Assay, 72 h); assay type: cell-based, human; conditions: Homo sapiens
Description: as §1

[2] = Sprague-Dawley (SD), rat, po, plasma, read-out: AUC0-t

AUC(0-t) ([1]; plasma): 891 ± 164 ng·h/mL
Compound: Nc1ncnc2c1c(-c1ccc(Oc3ccccc3)cc1)nn2[C@@H]1CCN(C2CCN(C3CN(c4ccc5c(c4)C(=O)N(C4CCC(=O)NC4=O)C5=O)C3)CC2)C[C@H]1F (relative stereo) [Compound 20-1, trans-5-(3-(4-(4-amino-3-(4-phenoxyphenyl)-1H-pyrazolo[3,4-d]pyrimidin-1-yl)-3-fluoro-[1,4′-bipiperidin]-1′-yl)azetidin-1-yl)-2-(2,6-dioxopiperidin-3-yl)isoindoline-1,3-dione]
IC50 (Mino cells): 32 nM

IC50 (SU-DHL-6 cells): 77 nM
Compound: Nc1ncnc2c1c(-c1ccc(Oc3ccccc3)cc1)nn2C1CCN(CC2CN(C3CCN(c4ccc5c(c4)C(=O)N(C4CCC(=O)NC4=O)C5=O)CC3)C2)CC1 (stereo not drawn) [Compound 10, 5-(4-(3-((4-(4-amino-3-(4-phenoxyphenyl)-1H-pyrazolo[3,4-d]pyrimidin-1-yl)piperidin-1-yl)methyl)azetidin-1-yl)piperidin-1-yl)-2-(2,6-dioxopiperidin-3-yl)isoindoline-1,3-dione Tetratrifluoroacetate]
IC50 (Mino cells; Homo sapiens): 405 nM

IC50 (SU-DHL-4 cells): 60 nM | IC50 (SU-DHL-6 cells): 86 nM
Compound: Nc1ncnc2c1c(-c1ccc(Oc3ccccc3)cc1)nn2C1CCN(C2CCN(C3CCN(C4CCN(C5CCN(c6ccc7c(c6)C(=O)N(C6CCC(=O)NC6=O)C7=O)CC5)CC4)CC3)CC2)CC1 (stereo not drawn) [Compound 14, 5-[4-[4-[4-[4-[4-[4-amino-3-(4-phenoxyphenyl)pyrazolo[3,4-d]pyrimidin-1-yl]-1-piperidyl]-1-piperidyl]-1-piperidyl]-1-piperidyl]-1-piperidyl]-2-(2,6-dioxo-3-piperidyl)isoindoline-1,3-dione Hexatrifluoroacetate]

IC50 (SU-DHL-6 cells): 782 nM
Compound: Nc1ncnc2c1c(-c1ccc(Oc3ccccc3)cc1)nn2C1CCN(C2CN(C3CN(c4ccc5c(c4)C(=O)N(C4CCC(=O)NC4=O)C5=O)C3)C2)CC1F (stereo not drawn) [Compound 19, trans-5-(3-(4-(4-amino-3-(4-phenoxyphenyl)-1H-pyrazolo[3,4-d]pyrimidin-1-yl)-3-fluoropiperidin-1-yl)-[1,3′-biazetidin]-1′-yl)-2-(2,6-dioxopiperidin-3-yl)isoindoline-1,3-dione trifluoroacetate]
IC50 (Mino cells; Homo sapiens): 48 nM

bioavailability ([1]; Sprague-Dawley (SD), rat, plasma, po, i.g. 20 mg/kg (0.5% MC) vs i.v. 5 mg/kg): 12.4 ± 3.8% | AUC(0-t) [1, 2]: 3200 ± 973 ng·h/mL
Compound: Nc1ncnc2c1c(-c1ccc(Oc3ccccc3)cc1)nn2C1CCN(C2CN(C3CN(c4cc5c(cc4F)C(=O)N(C4CCC(=O)NC4=O)C5=O)C3)C2)CC1 (stereo not drawn) [Compound 21, 5-(3-(4-(4-amino-3-(4-phenoxyphenyl)-1H-pyrazolo[3,4-d]pyrimidin-1-yl)piperidin-1-yl)-[1,3′-biazetidin]-1′-yl)-2-(2,6-dioxopiperidin-3-yl)-6-fluoroisoindoline-1,3-dione]

IC50 (SU-DHL-4 cells): 631 nM | AUC(0-t) [1, 2]: 473 ± 105 ng·h/mL
Compound: Nc1ncnc2c1c(-c1ccc(Oc3ccccc3)cc1)nn2C1CCN(C2CN(C3CCC(Oc4ccc5c(c4)C(=O)N(C4CCC(=O)NC4=O)C5=O)CC3)C2)CC1 (stereo not drawn) [Compound 37, 5-[4-[3-[4-[4-amino-3-(4-phenoxyphenyl)pyrazolo[3,4-d]pyrimidin-1-yl]-1-piperidyl]azetidin-1-yl]cyclohexoxy]-2-(2,6-dioxo-3-piperidyl)isoindoline-1,3-dione]

F (%) ([1]; i.g. 20 mg/kg (0.5% MC) vs i.v. 5 mg/kg): 4.14 ± 2.1% | AUC(0-t) ([1]; plasma): 475 ± 237 ng·h/mL
Compound: Nc1ncnc2c1c(-c1ccc(Oc3ccccc3)cc1)nn2C1CCN(C2CCN(C3CN(c4ccc5c(c4)C(=O)N(C4CCC(=O)NC4=O)C5=O)C3)CC2F)CC1 (stereo not drawn) [Compound 49-2, cis-5-(3-(4-(4-amino-3-(4-phenoxyphenyl)-1H-pyrazolo[3,4-d]pyrimidin-1-yl)-3′-fluoro-[1,4′-bipiperidin]-1′-yl)azetidin-1-yl)-2-(2,6-dioxopiperidin-3-yl)isoindoline-1,3-dione-P2]
IC50 (Mino cells): 10 nM
